Experimental data taken from patent publication US20240139158A1, “METHODS OF TREATING PULMONARY DISEASES AND DISORDERS” (Proteostasis Therapeutics, Inc., priority 2015, published 2024).

Molecular target: T1, CFTR, genotype Non-CF (“wild-type”/“wild-type”) (Homo sapiens, UniProt P13569)
T1 construct: Non-CF; endogenous in cells
Test: Activity by CFTR genotype with compound A (Example 79, Table 2)
Assay type: cell-based
Details: Relative Activity of 100% = Vehicle treated, 10 uM
Experimental: Table 2 indicates mutation type and activity with compounds/combination with compound A. ## indicates activity at 30 uM of 50% to <100% of the indicated relative activity treatment, #### indicates activity at 30 uM of ≥150% of the indicated relative activity treatment, + indicates activity at 10 uM of 15% to <50% of the indicated relative activity treatment, ++ indicates activity at 10 uM of 50% to <100% of the indicated relative activity treatment, +++ indicates activity at 10 uM of 100% to <150% of the indicated relative activity treatment, ++++ indicates activity at 10 uM of >150% of the indicated relative activity treatment. NB124 is used at 250 ug/ml, ivacaftor is used at 1 uM, lumacaftor is used at 3 uM, and VX-661 is used at 3 uM.

T1 sequence (P13569 whole entry): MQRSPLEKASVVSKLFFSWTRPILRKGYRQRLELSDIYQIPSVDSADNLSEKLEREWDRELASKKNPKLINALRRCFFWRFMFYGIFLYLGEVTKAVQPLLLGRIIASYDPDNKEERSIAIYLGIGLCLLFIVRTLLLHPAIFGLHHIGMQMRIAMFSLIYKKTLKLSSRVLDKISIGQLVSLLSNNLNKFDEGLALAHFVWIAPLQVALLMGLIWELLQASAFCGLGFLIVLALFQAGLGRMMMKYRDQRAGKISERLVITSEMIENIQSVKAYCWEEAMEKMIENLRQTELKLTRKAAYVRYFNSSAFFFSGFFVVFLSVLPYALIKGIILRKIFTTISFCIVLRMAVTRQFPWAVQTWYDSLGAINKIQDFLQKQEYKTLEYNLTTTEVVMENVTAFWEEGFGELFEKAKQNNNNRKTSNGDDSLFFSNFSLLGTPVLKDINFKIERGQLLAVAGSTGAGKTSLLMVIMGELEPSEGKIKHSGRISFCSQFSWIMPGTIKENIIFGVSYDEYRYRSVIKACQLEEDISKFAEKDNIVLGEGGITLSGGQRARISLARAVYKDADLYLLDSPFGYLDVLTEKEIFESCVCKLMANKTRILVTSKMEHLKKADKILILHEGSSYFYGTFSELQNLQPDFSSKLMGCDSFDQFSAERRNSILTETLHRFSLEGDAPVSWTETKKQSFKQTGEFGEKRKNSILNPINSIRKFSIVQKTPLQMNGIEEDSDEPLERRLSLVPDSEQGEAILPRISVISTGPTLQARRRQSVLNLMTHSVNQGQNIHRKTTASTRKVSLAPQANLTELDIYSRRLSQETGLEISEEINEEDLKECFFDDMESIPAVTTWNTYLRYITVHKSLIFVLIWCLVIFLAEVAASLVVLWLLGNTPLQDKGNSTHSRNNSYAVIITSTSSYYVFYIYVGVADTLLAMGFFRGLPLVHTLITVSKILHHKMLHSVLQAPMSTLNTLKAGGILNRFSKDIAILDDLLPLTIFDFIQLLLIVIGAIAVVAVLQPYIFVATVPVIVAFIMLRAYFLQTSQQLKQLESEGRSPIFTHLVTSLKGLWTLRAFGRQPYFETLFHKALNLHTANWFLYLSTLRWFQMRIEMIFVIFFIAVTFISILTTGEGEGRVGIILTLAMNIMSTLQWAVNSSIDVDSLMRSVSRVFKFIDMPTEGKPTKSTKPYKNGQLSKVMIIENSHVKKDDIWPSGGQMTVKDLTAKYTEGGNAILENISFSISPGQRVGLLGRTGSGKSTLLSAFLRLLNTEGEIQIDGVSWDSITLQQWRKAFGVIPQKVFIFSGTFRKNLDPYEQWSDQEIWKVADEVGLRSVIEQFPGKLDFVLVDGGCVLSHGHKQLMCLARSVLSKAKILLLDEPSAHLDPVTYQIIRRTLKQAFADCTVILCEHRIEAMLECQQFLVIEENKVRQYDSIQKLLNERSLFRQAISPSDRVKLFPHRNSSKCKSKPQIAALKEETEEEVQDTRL

C[C@@H](O)c1nnc(C2CC(NC(=O)c3cc(-c4ccccc4)no3)C2)o1 (stereo partly shown) [Compound A]
Stand Alone activity: +++ (activity at 10 uM of 100% to <150% of the indicated relative activity treatment)
